Reference: patent publication US7211566B2 (Universite De Sherbrooke, priority 2003, dated 2007)
Square brackets hold non-standard residues; d marks the D form. Peptide text beside a SMILES is read from it. Oic = O=C(O)[C@@H]1C[C@@H]2CCCC[C@@H]2N1; d2Nal = N[C@H](Cc1ccc2ccccc2c1)C(=O)O; αMeF = C[C@](N)(Cc1ccccc1)C(=O)O; Orn = NCCC[C@H](N)C(=O)O

Legend:
[1] = Ex vivo stability in rat tissue extracts from liver, lung and kidney (HPLC); format: in vitro ADME; conditions: Wistar, after 24 hours, read-out: parent remaining
Experimental: Liver, lung and kidneys were collected from Wistar rats and resuspended in nine volume of PBS. The tissues were homogenized for 3×15 sec. on ice with a Polytron homogenizer and were centrifuged at 3000 rpm for 15 min. at 4° C. The supernatant was collected and kept at −80° C. until used.
Stability studies were initiated by adding the peptide […] to 50–100 μl of either plasma, serum or extract (10–100 μM final concentration) and incubated for 10 min to 24 hours at 37° C. The reaction was stopped by the addition of ice-cold acetonitrile (75% final concentration) containing 10 μM Lys-desArg^9BK (which serves as an internal control). The samples were vortexed and centrifuged at 13000 rpm for 20 min at 4° C. in a microfuge. The clear supernatant was transferred to a 1 ml tube and the samples were evaporated to dryness by lyophilisation. Finally, the samples were resuspended in 50 μl of HPLC-grade water.
Quantitative analysis of the extracted compound and standard controls was carried out using an Agilent reverse-phase HPLC (model 1100) coupled to a 4.6×150 mm Zorbax 300SB-C18 column (5 μm particle size) and equipped with a diode array detector. […] The elution positions and quantification of compounds were determined by following the absorbance at 226 nm. […]

[2] = Circulatory half-life in rat plasma after bolus i.v. administration; format: in vivo; conditions: iv, 2.5 mg/kg body weight, direct i.v. jugular administration, anaesthetized rats
Experimental: Rats were anesthetized with the administration of ketamine/xylazine (100 mg/ml:0.1 ml/100 g, i.p.). For ex vivo analysis, blood was collected by cardiac puncture and placed into 5 ml vacutainer tubes containing 0.5 ml of 0.1 M Na2CO3 (for blood and plasma). For in vivo analysis, the drug was administered by i.v. bolus (2.5 mg/kg body weight) in the jugular vein of anesthetized rats and blood was collected as described above after 2, 5, 15, 30, 60, 120, 180 and 240 min.
Quantitative analysis of the extracted compound and standard controls was carried out using an Agilent reverse-phase HPLC (model 1100) coupled to a 4.6×150 mm Zorbax 300SB-C18 column (5 μm particle size) and equipped with a diode array detector. The peptides were eluted at a flow rate of 0.7 ml/min. with a linear gradient ranging from 5 to 65% of acetonitrile/TFA 0.05%/water over 32 min. at 25° C. The elution positions and quantification of compounds were determined by following the absorbance at 226 nm.
Concentrations of the peak's products were estimated using a computer software program (Chemstation for LC 3D, Agilent) that controlled all the chromatography operations.

STZ diabetic mice = experiment: Tail flick test, type-1 diabetic hyperalgesia; format: in vivo; conditions: STZ diabetic mice, i.p., at time of maximal inhibition (10 min)
Experimental: Male CD-1 mice weighting between 25–30 g (Charles River Breeding Laboratory, St-Constant, QC, Canada) were used. The mice were housed four by cage with free access to food and water. They were maintained under conditions of standard lighting, (alternating 12-h light/dark cycle), temperature (22±0.5° C.) and humidity (60±10%) with food and water available at libitum. Animals were used only once in a given experiment. Experiments were conducted between 10:00 and 18:00 h.
Streptozotocin (Pharmacia & Upjohn Incorporation, Mississauga, ON, Canada) was dissolved in saline at a pH of 4.5 and administered to mice i.p. The BKB1 agonist desArg^9BK and compound c were dissolved in saline and administered to mice i.p.
Insulin-dependent diabetes mellitus (IDDM) was induced in mice using STZ. Male CD-1 mice were given a single high i.p. dose of STZ (200 mg/kg) (McEvoy et al., 1984, J Clin Invest 74, 715–722). […] Blood glucose levels were determined with an automatic analyzer (Glucometer Elite XL, Bayer Incorporation, Toronto, Ontario, Canada) using glucose oxidase/potassium ferricyanide reagent strips. […]
The tail flick test of D'Amour and Smith (D'Amour and Smith, 1941, J Pharmacol Exp Ther 72, 74–79) modified for mice was used. […] The radiant light is focussed on a blackened spot in the mid region of the animal's tail (2–3 cm from the tip of the tail) and the latency between the application of the stimulation light and the flicking of the animal's tail is recorded. When the animal flicks its tail, its exposes a photocell in the apparatus immediately below the tail and the instrument is automatically stopped and the time is recorded. […]
The effect of the selected drugs on nociception was determined by converting the hot plate, the plantar stimulation, the tail immersion or the tail flick responses from latencies into MPE (Maximum Percent Effect) according to the following equation (Bhargava and Zhao, 1996, Neuropeptides, 30, 219–223): […]

## CC[C@H](C)[C@H](NC(=O)[C@@H](Cc1ccc2ccccc2c1)NC(=O)[C@H](CO)NC(=O)[C@](C)(Cc1ccccc1)NC(=O)CNC(=O)[C@@H]1CCCN1C(=O)[C@@H]1C[C@@H]2CCCC[C@@H]2N1C(=O)[C@H](CCCNC(=N)N)NC(=O)[C@H](CCCN)NC(C)=O)C(=O)O [compound c, Ac-Orn[Oic^2,(α-Me)Phe^5,D-βNal^7,Ile^8]desArg^9BK] (Ac-[Orn]R[Oic]PG[αMeF]S[d2Nal]I-OH)
[1]
  remaining at 24 h: > 75%
[2]
  half-life: > 2 h
STZ diabetic mice
  ID50: 0.072 ± 0.002 mg/kg
